Measured values as given in US20230329236A1, “HERBICIDAL PYRIMIDINE DERIVATIVES” (MoA Technology Limited, priority 2020, published 2023).

Tests used:
[1] = test system: Lolium multiflorum (LOLMU); assay: Post-emergence glasshouse test, visual injury, LOLMU; type: in vivo; settings: 336 h, 14±1 days post application
How it was run: (§1)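 Percent visual injury relative to untreated plots is scored 14±1 days after treatment. Plants grow in sandy loam under controlled glasshouse conditions and are sprayed at BBCH 12-14 with an aqueous solution of compound in acetone/water (50:50) with 0.5% Tween 20, dosed in g/ha.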

[2] = test system: Echinochloa crus-gaffi (ECHCG); assay: Post-emergence glasshouse test, visual injury, ECHCG; type: in vivo, Echinochloa crus-galli; settings: 336 h, 14±1 days post application
How it was run: as §1

Veronica persica (VERPE) = assay: Post-emergence glasshouse test, visual injury, VERPE; type: in vivo; settings: 336 h, 14±1 days post application
How it was run: as §1

[3] = test system: Amaranthus retroflexus (AMARE); assay: Post-emergence glasshouse test, visual injury, AMARE; type: in vivo; settings: 336 h, 14±1 days post application
How it was run: as §1

Glycine max (GLXMA) = assay: Post-emergence glasshouse test, visual injury, GLXMA; type: in vivo; settings: Table 4, post-emergence, 14±1 days post application
Procedure: (§2) Seeds of a variety of test species are grown in a sandy loam soil mixture, Lolium multiflorum (LOLMU), Amaranthus retroflexus (AMARE), Echinochloa crus-gaffi (ECHCG), Veronica persica (VERPE), Glycine max (GLXMA), Oryza sativa (ORYSA), Zea mays (ZEAMX), spring wheat (TRZAS), Ipomoea hederacea (IPOHE), Ipomoea purpurea (PHBPU), Stellaria media (STEME), Solanum nigrum (SOLNI), Digitaria sanguinalis (DIGSA), Setaria italica (SETIT), Alopecurus myosuroides (ALOMY) and Avena fatua (AVEFA).
(§3) After sowing, at growth stage BBCH 12-14 (post-emergence), the plants are sprayed with an aqueous spray solution derived from the formulation of the technical active ingredient in acetone/water (50:50) solution containing 0.5% Tween 20 (polyoxyethlyene sorbitan monolaureate, CAS RN 9005-64-5). The test compounds are applied at the required concentration of active ingredient in g/ha. The test plants are then grown in a glasshouse under controlled environmental conditions and watered regularly as required. After 14±1 days post application (for post-emergence test), the test is evaluated by assessing the percentage damage caused to the plants in comparison with the untreated plots. The biological activities for post-emergence testing are shown below (Table 3 and Table 4) as a % visual injury.

Oryza sativa (ORYSA) = assay: Post-emergence glasshouse test, visual injury, ORYSA; type: in vivo; settings: Table 4, post-emergence, 14±1 days post application
Procedure: as §2, §3

Zea mays (ZEAMX) = assay: Post-emergence glasshouse test, visual injury, ZEAMX; type: in vivo; settings: Table 4, post-emergence, 14±1 days post application
Procedure: as §2, §3

spring wheat (TRZAS) = assay: Post-emergence glasshouse test, visual injury, TRZAS; type: in vivo; settings: Table 4, post-emergence, 14±1 days post application
Procedure: as §2, §3

[4] = test system: Ipomoea hederacea (IPOHE); assay: Post-emergence glasshouse test, visual injury, IPOHE; type: in vivo; settings: Table 4, post-emergence, 14±1 days post application
Procedure: as §2, §3

Ipomoea purpurea (PHBPU) = assay: Post-emergence glasshouse test, visual injury, PHBPU; type: in vivo; settings: Table 4, post-emergence, 14±1 days post application
Procedure: as §2, §3

Stellaria media (STEME) = assay: Post-emergence glasshouse test, visual injury, STEME; type: in vivo; settings: Table 4, post-emergence, 14±1 days post application
Procedure: as §2, §3

Solanum nigrum (SOLNI) = assay: Post-emergence glasshouse test, visual injury, SOLNI; type: in vivo; settings: Table 4, post-emergence, 14±1 days post application
Procedure: as §2, §3

[5] = test system: Digitaria sanguinalis (DIGSA); assay: Post-emergence glasshouse test, visual injury, DIGSA; type: in vivo; settings: Table 4, post-emergence, 14±1 days post application
Procedure: as §2, §3

Setaria italica (SETIT) = assay: Post-emergence glasshouse test, visual injury, SETIT; type: in vivo; settings: Table 4, post-emergence, 14±1 days post application
Procedure: as §2, §3

[6] = test system: Alopecurus myosuroides (ALOMY); assay: Post-emergence glasshouse test, visual injury, ALOMY; type: in vivo; settings: Table 4, post-emergence, 14±1 days post application
Procedure: as §2, §3

Avena fatua (AVEFA) = assay: Post-emergence glasshouse test, visual injury, AVEFA; type: in vivo; settings: Table 4, post-emergence, 14±1 days post application
Procedure: as §2, §3

[7] = Table 4, post-emergence, 125 g/ha
[8] = Table 4, post-emergence, 250 g/ha
[9] = Table 4, post-emergence, 1000 g/ha

Cc1cc(-c2cnc(NCc3ccc(F)cc3)nc2C2CC2)on1 [Compound 16]
pest or weed control at 500 g/ha ([1]; Table 3, post-emergence): 0%
pest or weed control at 125 g/ha [1, 7]: 98%
pest or weed control at 250 g/ha [1, 8]: 90%
pest or weed control at 500 g/ha ([1]; Table 4, post-emergence): 100%
pest or weed control at 1000 g/ha [1, 9]: 95%
pest or weed control at 500 g/ha ([2]; Table 3, post-emergence): 40%
pest or weed control at 125 g/ha [2, 7]: 80%
pest or weed control at 250 g/ha [2, 8]: 70%
pest or weed control at 500 g/ha ([2]; Table 4, post-emergence): 60%
pest or weed control at 1000 g/ha [2, 9]: 90%
pest or weed control at 500 g/ha (Veronica persica (VERPE); Table 3, post-emergence): 95%
pest or weed control at 125 g/ha (Veronica persica (VERPE); [7]): 100%
pest or weed control at 250 g/ha (Veronica persica (VERPE); [8]): 100%
pest or weed control at 500 g/ha (Veronica persica (VERPE); Table 4, post-emergence): 100%
pest or weed control at 1000 g/ha (Veronica persica (VERPE); [9]): 100%
pest or weed control at 500 g/ha ([3]; Table 3, post-emergence): 95%
pest or weed control at 125 g/ha [3, 7]: 100%
pest or weed control at 250 g/ha [3, 8]: 100%
pest or weed control at 500 g/ha ([3]; Table 4, post-emergence): 100%
pest or weed control at 1000 g/ha [3, 9]: 100%
GLXMA % visual injury (Glycine max (GLXMA); 125 g/ha): 50%
GLXMA % visual injury (Glycine max (GLXMA); 250 g/ha): 40%
GLXMA % visual injury (Glycine max (GLXMA); 500 g/ha): 70%
GLXMA % visual injury (Glycine max (GLXMA); 1000 g/ha): 50%
ORYSA % visual injury (Oryza sativa (ORYSA); 125 g/ha): 60%
ORYSA % visual injury (Oryza sativa (ORYSA); 250 g/ha): 90%
ORYSA % visual injury (Oryza sativa (ORYSA); 500 g/ha): 70%
ORYSA % visual injury (Oryza sativa (ORYSA); 1000 g/ha): 60%
ZEAMX % visual injury (Zea mays (ZEAMX); 125 g/ha): 60%
ZEAMX % visual injury (Zea mays (ZEAMX); 250 g/ha): 60%
ZEAMX % visual injury (Zea mays (ZEAMX); 500 g/ha): 50%
ZEAMX % visual injury (Zea mays (ZEAMX); 1000 g/ha): 70%
TRZAS % visual injury (spring wheat (TRZAS); 125 g/ha): 30%
TRZAS % visual injury (spring wheat (TRZAS); 250 g/ha): 30%
TRZAS % visual injury (spring wheat (TRZAS); 500 g/ha): 50%
TRZAS % visual injury (spring wheat (TRZAS); 1000 g/ha): 50%
IPOHE % visual injury ([4]; 125 g/ha): 40%
IPOHE % visual injury ([4]; 250 g/ha): 80%
IPOHE % visual injury ([4]; 500 g/ha): 100%
IPOHE % visual injury ([4]; 1000 g/ha): 100%
PHBPU % visual injury (Ipomoea purpurea (PHBPU); 125 g/ha): 80%
PHBPU % visual injury (Ipomoea purpurea (PHBPU); 250 g/ha): 95%
PHBPU % visual injury (Ipomoea purpurea (PHBPU); 500 g/ha): 90%
PHBPU % visual injury (Ipomoea purpurea (PHBPU); 1000 g/ha): 90%
STEME % visual injury (Stellaria media (STEME); 125 g/ha): 100%
STEME % visual injury (Stellaria media (STEME); 250 g/ha): 100%
STEME % visual injury (Stellaria media (STEME); 500 g/ha): 100%
STEME % visual injury (Stellaria media (STEME); 1000 g/ha): 100%
SOLNI % visual injury (Solanum nigrum (SOLNI); 125 g/ha): 98%
SOLNI % visual injury (Solanum nigrum (SOLNI); 250 g/ha): 99%
SOLNI % visual injury (Solanum nigrum (SOLNI); 500 g/ha): 100%
SOLNI % visual injury (Solanum nigrum (SOLNI); 1000 g/ha): 100%
DIGSA % visual injury ([5]; 125 g/ha): 90%
DIGSA % visual injury ([5]; 250 g/ha): 80%
DIGSA % visual injury ([5]; 500 g/ha): 90%
DIGSA % visual injury ([5]; 1000 g/ha): 90%
SETIT % visual injury (Setaria italica (SETIT); 125 g/ha): 0%
SETIT % visual injury (Setaria italica (SETIT); 250 g/ha): 30%
SETIT % visual injury (Setaria italica (SETIT); 500 g/ha): 30%
SETIT % visual injury (Setaria italica (SETIT); 1000 g/ha): 60%
ALOMY % visual injury ([6]; 125 g/ha): 70%
ALOMY % visual injury ([6]; 250 g/ha): 80%
ALOMY % visual injury ([6]; 500 g/ha): 80%
ALOMY % visual injury ([6]; 1000 g/ha): 80%
AVEFA % visual injury (Avena fatua (AVEFA); 125 g/ha): 50%
AVEFA % visual injury (Avena fatua (AVEFA); 250 g/ha): 60%
AVEFA % visual injury (Avena fatua (AVEFA); 500 g/ha): 60%
AVEFA % visual injury (Avena fatua (AVEFA); 1000 g/ha): 60%
